Measured values taken from ChEMBL document CHEMBL5728791, “Heteroaromatic derivatives as NIK inhibitors” (2021).
pIC50: −log10 of the molar value.

Biological target: Mitogen-activated protein kinase kinase kinase 14 (Homo sapiens, UniProt Q99558)
Assay: Inhibition of auto-phosphorylation of recombinant human NF-kappaB-inducing kinase (NIK/MAP3K14) activity: NIK/MAP3K14 auto-phosphorylation activity was measured using the AlphaScreen® (αscreen) format (Perkin Elmer). All compounds tested were dissolved in dimethyl sulfoxide (DMSO) and further dilutions were made in assay buffer. Final DMSO concentration was 1% (v/v) in assays. Assay buffer was 50 mM Tris pH 7.5 containing 1 mM EGTA (ethylene glycol tetraacetic acid), 1 mM DTT (dithiothreitol), 0.1 mM Na3VO4, 5 mM MgCl2, 0.01% Tween® 20. Assays were carried out in 384 well Alphaplates (Perkin Elmer). Incubations consisted of compound, 25 microM Adenosine-5′-triphosphate (ATP), and 0.2 nM NIK/MAP3K14. Incubations were initiated by addition of GST-tagged NIK/MAP3K14 enzyme, carried out for 1 h at 25° C. and terminated by addition of stop buffer containing anti-phospho-IKK Ser176/180 antibody. Protein A Acceptor and Glutathione-Donor beads were added before reading using an EnVision® Multilabel Plate Reader (Perkin Elmer). Signal obtained in the wells containing blank samples was subtracted from all other wells and IC50's were determined by fitting a sigmoidal curve to % inhibition of control versus Log10 compound concentration.

Chain of Mitogen-activated protein kinase kinase kinase 14 (Q99558 whole entry): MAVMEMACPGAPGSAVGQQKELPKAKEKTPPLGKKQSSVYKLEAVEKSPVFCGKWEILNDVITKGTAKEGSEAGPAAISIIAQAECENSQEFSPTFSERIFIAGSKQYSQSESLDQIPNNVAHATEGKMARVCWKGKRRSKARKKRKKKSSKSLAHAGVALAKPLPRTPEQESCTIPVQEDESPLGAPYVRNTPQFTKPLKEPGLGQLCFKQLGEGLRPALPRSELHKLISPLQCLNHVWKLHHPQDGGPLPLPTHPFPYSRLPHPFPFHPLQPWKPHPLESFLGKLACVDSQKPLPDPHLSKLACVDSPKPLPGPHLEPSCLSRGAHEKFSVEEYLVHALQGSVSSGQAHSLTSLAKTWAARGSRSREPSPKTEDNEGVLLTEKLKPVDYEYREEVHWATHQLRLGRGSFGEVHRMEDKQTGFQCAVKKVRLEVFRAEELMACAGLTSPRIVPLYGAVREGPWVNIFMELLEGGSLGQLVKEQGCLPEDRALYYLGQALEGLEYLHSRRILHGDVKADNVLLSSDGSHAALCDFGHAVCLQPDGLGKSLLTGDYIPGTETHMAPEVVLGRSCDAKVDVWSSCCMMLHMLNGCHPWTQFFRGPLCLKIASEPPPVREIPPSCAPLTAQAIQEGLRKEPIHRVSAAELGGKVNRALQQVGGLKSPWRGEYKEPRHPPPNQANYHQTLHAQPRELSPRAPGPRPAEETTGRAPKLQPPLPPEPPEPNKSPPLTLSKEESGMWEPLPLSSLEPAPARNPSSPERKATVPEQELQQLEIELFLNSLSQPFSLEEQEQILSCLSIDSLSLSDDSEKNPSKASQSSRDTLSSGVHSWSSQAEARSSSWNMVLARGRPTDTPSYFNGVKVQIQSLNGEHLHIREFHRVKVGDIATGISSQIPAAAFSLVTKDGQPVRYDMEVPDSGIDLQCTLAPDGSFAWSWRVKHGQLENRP

pIC50	SMILES
8.40	COCCCn1nc(C)cc1Nc1nccc(-c2cc(C#N)c3c(c2)[C@@](C)(CO)CN3)n1
8.49	Cc1nn(C)cc1Nc1nccc(-c2cc(C#N)c3c(c2)C(C)(CO)CN3)n1 (stereo not drawn)
7.68	Cc1cc(Nc2nccc(-c3cc(C#N)c4c(c3)C(C)(CO)CN4)n2)n(CCN(C)C)n1 (stereo not drawn)
